Reference: BigSolDB 2.1

c1ccc2c(c1)ccc1ccccc12
solubility (mole fraction)
Details	293 K	303 K	313 K	323 K
in 2,2,4-trimethylpentane	0.019	0.036	0.0874	0.138
in n-heptane	0.0154	0.0247	0.036	0.0519
in toluene	0.461	0.499	0.577	0.604
